# Measurements taken from patent US12616695B2, “Use of 5-amino-2,3-dihydro-1,4-phthalazinedione in the treatment of rare chronic inflammatory pulmonary diseases” (Metriopharm AG, priority 2020, dated 2026).
# Read-outs that look alike come from different tables or passages of the source.
# System: cigarette smoke-induced 3-nitrotyrosine formation in the lung parenchyma
# Conditions: for 3-nitrotyrosine stained surface area, mean ± SEM: n=5 mice, room air 0.24 ± 0.09, cigarette smoke + diluent 3.07 ± 0.39
# Procedure: 5-amino-2,3-dihydro-1,4-phthalazinedione sodium salt Form I was tested in an isolated, ventilated and perfused mouse lung system that was stimulated with cigarette smoke.
# The isolated, ventilated and perfused mouse lung system (ILU) is an established model for studying acute effects of various conditions and drugs on lung parenchyma and vasculature. It is mainly used for examining effects of hypoxia and for evaluating the efficacy of potential drugs on the hypoxic pulmonary vasoreaction (cf. Weissmann et al. (2006) Proc Natl Acad Sci USA 103: 19093-19098).
# C57BL/6J mice (n=25, 5 per group; male/female, 3-6 months, 20-30 g; Charles River GmbH, Sulzfeld, Germany) were anesthetized with a ketamine (100 mg/kg body weight) and xylazine (20 mg/kg body weight) intraperitoneal injection (Ceva Tiergesundheit GmbH, Dusseldorf, Germany) containing heparin (50 I.E. heparin/g body weight; Ratiopharm GmbH, Ulm, Germany). The lungs and the heart were removed from the chest cavity and placed on the ILU system (see FIGS. 1A and 1B). Lungs were ventilated in an isolated chamber using normoxic gas (21% O2, 5% CO2, 74% N2; 150 breaths per minute at the PEEP (positive end-expiratory pressure) of 3 cm H2O) and perfused with a modified Krebs-Henseleit buffer (120.0 mM NaCl, 4.3 mM KCl, 1.1 mM KH2PO4, 2.4 mM CaCl2, 1.3 mM MgCl2, 13.14 mM glucose, 0.25 mM hydroxyethyl starch 200000/0.5, 25.0 mM NaHCO3 adjusted to a constant pH range of […] L-arginine; Serag-Wissner GmbH & Co. KG, Naila, Germany) at a temperature of 37° C. Lung weight, right and left ventricle pressure, as well as ventilatory pressure were monitored and recorded during the whole experimental procedure. After 5-10 minutes, when the lung was properly flushed and all the parameters were stable, 5-amino-2,3-dihydro-1,4-phthalazinedione sodium salt was applied by adding 150 μl of a stock solution to 15 ml of the circulating perfusion buffer. The substance was applied 10 minutes prior to the first cigarette smoke application. Cigarette smoke was applied via trachea while lung is perfused with the buffer containing 5-amino-2,3-dihydro-1,4-phthalazinedione sodium salt. Cigarette smoke was prepared freshly before each application, by burning one cigarette (research cigarettes 3R4F, University of Kentucky, USA) in one minute using normoxic gas at the flow of 11/min and collected in a 1 I glass bottle containing 5 g silica gel for removing the moist from the cigarette smoke. 50 ml of the cigarette smoke were taken via a syringe and applied to the lung via trachea (FIG. 1A) in deep breaths (periodic inflation for 3-4 s) over a period of 5 min. The application was done manually while carefully monitoring the inspiratory pressure to avoid damage of the lung. The cigarette smoke application was repeated three times with a 1 hour break in-between.
# Five treatment groups (n=5, respectively) were investigated: • A: room air exposure • B: cigarette smoke+diluent (buffer solution) • C: cigarette smoke+0.5 mM 5-amino-2,3-dihydro-1,4-phthalazinedione sodium salt • D: cigarette smoke+1 mM 5-amino-2,3-dihydro-1,4-phthalazinedione sodium salt • E: cigarette smoke+2 mM 5-amino-2,3-dihydro-1,4-phthalazinedione sodium salt
# 5-amino-2,3-dihydro-1,4-phthalazinedione sodium salt Form I was dissolved in water for injection (vehicle) at the required concentrations described above. Stock solutions were prepared in water for injection. Further 1:100 dilutions were made with modified Krebs-Henseleit buffer (see above). Stock solutions were stored at −70° C. in appropriate aliquots. The required amount of stock solution was thawed, and the corresponding working solution was prepared for immediate use.
# One hour after the third cigarette smoke application lungs were removed from the system and fixed by inflating with formalin solution (via trachea) at the pressure of 12-15 cm H2O for two hours at room temperature.
compound,measurement,setting,value
"Nc1cccc2c(=O)[nH][nH]c(=O)c12.[Na] [5-amino-2,3-dihydro-1,4-phthalazinedione sodium salt]",effect on cigarette smoke induced 3-nitrotyrosine formation (in words),0.5 mM in perfusion buffer (FIG. 2C),moderate effect
same,effect on cigarette smoke induced 3-nitrotyrosine formation (in words),1 mM in perfusion buffer (FIG. 2D),almost completely abolished
same,effect on cigarette smoke induced 3-nitrotyrosine formation (in words),2 mM in perfusion buffer (FIG. 2E),almost completely abolished
same,"3-nitrotyrosine stained surface area, mean ± SEM",cigarette smoke + 0.5 mM in perfusion buffer,2.24 ± 0.28 % area
same,"3-nitrotyrosine stained surface area, mean ± SEM",cigarette smoke + 1 mM in perfusion buffer,0.72 ± 0.26 % area
same,"3-nitrotyrosine stained surface area, mean ± SEM",cigarette smoke + 2 mM in perfusion buffer,0.37 ± 0.13 % area
same,"cigarette smoke-induced 3-nitrotyrosine formation in the lung parenchyma, conclusion (in words)","pre-treatment 10 minutes prior to the first cigarette smoke application, ILU model",prevents cigarette smoke-induced 3-nitrotyrosine formation
same,ROS/RNS levels in cigarette smoke-stimulated mouse lung (in words),"summary over 0.5, 1 and 2 mM",dose-dependent reduction of ROS/RNS levels down to control levels
